# Test results: PMC3280428 (Journal of Molecular Biology, 2011)
# Several values for one entry are separate records, joined by “and”; a condition that tells them apart may be missing. Equal values may be shown once.
# Tests used:
# [1] = biological target: T1, KIAA1718 Jumonji domain (residues 92–488) (Homo sapiens, UniProt Q6ZMT4); assay: Mass-spectrometry-based demethylation inhibition assay, KIAA1718 Jumonji domain; assay type: biochemical
# T1 sequence (Q6ZMT4 92-488): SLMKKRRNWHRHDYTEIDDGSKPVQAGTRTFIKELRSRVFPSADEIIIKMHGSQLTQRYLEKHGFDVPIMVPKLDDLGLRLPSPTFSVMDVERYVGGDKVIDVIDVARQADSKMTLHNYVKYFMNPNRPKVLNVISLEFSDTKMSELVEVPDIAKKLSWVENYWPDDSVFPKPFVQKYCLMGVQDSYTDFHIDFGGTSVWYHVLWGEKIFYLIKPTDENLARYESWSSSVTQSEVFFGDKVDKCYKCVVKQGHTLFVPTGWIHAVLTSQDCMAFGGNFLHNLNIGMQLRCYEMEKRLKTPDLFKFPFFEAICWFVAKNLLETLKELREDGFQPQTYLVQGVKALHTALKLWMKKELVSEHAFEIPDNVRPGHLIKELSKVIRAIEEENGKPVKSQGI
# [2] = Cytotoxicity; assay type: cell-based; conditions: 129S2/SvPasCrl, mouse
# [3] = Cytotoxicity; assay type: cell-based; conditions: human
smiles,measurement,setting,value
COc1cc2nc(N3CCCN(C)CC3)nc(NC3CCN(Cc4ccccc4)CC3)c2cc1OC [BIX-01294],IC50,[1],16.5 µM and ~16.5 µM
same,Ki,[1],15.3 µM
same,CC50 at 24 h,[2],7.4 µM
same,CC50 at 24 h,[3],3.2 µM
